Test results as given in patent publication US20100286181A1, “PYRROLE DERIVATIVES WITH ANTIBACTERIAL ACTIVITY” (ASTRAZENECA AB, priority 2006, published 2010).

Molecular target: GyrB ATPase activity (E. coli GyrA, E. coli GyrB) (Escherichia coli, UniProt P0AES6)
Test: GyrB ATPase inhibition activity assay (ammonium molybdate/malachite green phosphate detection)
Assay type: biochemical
Conditions: figure quoted may be an average of two or more results
Procedure: Compounds may be tested for inhibition of GyrB ATPase activity using an ammonium molybdate/malachite green-based phosphate detection assay (Lanzetta, P. A., L. J. Alvarez, P. S. Reinach, and O. A. Candia, 1979, 100: 95-97). Assays can be performed in multiwell plates in 100 μl reactions containing: 50 mM HEPES buffer pH 7.5, 75 mM ammonium acetate, 5.5 mM magnesium chloride, 0.5 mM ethylenediaminetetraacetic acid, 5% glycerol, 1 mM 1,4-Dithio-DL-threitol, 200 nM bovine serum albumin, 5 μg/ml sheared salmon sperm DNA, 2.5 nM E. coli GyrA, 2.5 nM E. coli GyrB, 250 μM ATP, and compound in dimethylsulfoxide. Reactions can be quenched with 150 μl of ammonium molybdate/malachite green detection reagent containing 1.2 mM malachite green hydrochloride, 8.5 mM ammonium molybdate tetrahydrate, and 1 M hydrochloric acid.
Compounds of the Examples could be expected to have IC50 values of <200 μg/ml in one or both assays described herein above. For Example the following results were obtained in a GyrB ATPase inhibition activity assay substantially similar to the above wherein the figure quoted may be an average of two or more results

Compound | IC50 [nM]
COCCNC(=O)c1nc(N2CCC(NC(=O)c3[nH]c(C)c(Cl)c3Cl)C3(C2)OCCCO3)sc1C(=O)O (stereo not shown) [Example 17, 2-(11-{[(3,4-Dichloro-5-methyl-1H-pyrrol-2-yl)carbonyl]amino}-1,5-dioxa-8-azaspiro[5.5]undec-8-yl)-4-{[(2-methoxyethyl)amino]carbonyl}-1,3-thiazole-5-carboxylic acid] | < 9.77
COCCNC(=O)c1nc(N2CC[C@@H](NC(=O)c3[nH]c(C)c(Cl)c3Cl)[C@@H](n3ccnn3)C2)sc1C(=O)O [Example 100] | < 9.77
Cc1[nH]c(C(=O)NC2CCN(c3ncc(C(=O)O)s3)CC23OCCO3)c(Cl)c1Cl (stereo not shown) [Example 11, 2-(10-{[(3,4-Dichloro-5-methyl-1H-pyrrol-2-yl)carbonyl]amino}-1,4-dioxa-7-azaspiro[4.5]dec-7-yl)-1,3-thiazole-5-carboxylic acid] | 17.8
COCCNC(=O)c1nc(N2CC[C@@H](NC(=O)c3[nH]c(C)c(Cl)c3Cl)[C@@H](n3cc(CO)nn3)C2)sc1C(=O)O [Example 115] | < 9.77
COCCNC(=O)c1nc(N2CCC(NC(=O)c3[nH]c(C)c(Cl)c3Cl)C3(C2)OCCO3)sc1C(=O)O (stereo not shown) [Example 14, 2-(10-{[(3,4-Dichloro-5-methyl-1H-pyrrol-2-yl)carbonyl]amino}-1,4-dioxa-7-azaspiro[4.5]dec-7-yl)-4-{[(2-methoxyethyl)amino]carbonyl}-1,3-thiazole-5-carboxylic acid] | < 9.77
Cc1[nH]c(C(=O)N[C@@H]2CCN(c3ncc(C(=O)O)s3)C[C@@H]2N=[N+]=[N-])c(Cl)c1Cl [Example 102] | < 9.77
COC(=O)c1sc(N2CCC(NC(=O)c3[nH]c(C)c(Cl)c3Cl)C3(C2)OCCO3)nc1C(C)=O (stereo not shown) [Example 2, Methyl 4-acetyl-2-(10-{[(3,4-dichloro-5-methyl-1H-pyrrol-2-yl)carbonyl]amino}-1,4-dioxa-7-azaspiro[4.5]dec-7-yl)-1,3-thiazole-5-carboxylate] | 487
CCOC(=O)c1sc(N2CCC(NC(=O)c3[nH]c(C)c(Cl)c3Cl)C3(C2)OCCCO3)nc1C(=O)NCCOC (stereo not shown) [Example 7, Ethyl 2-(11-{[(3,4-dichloro-5-methyl-1H-pyrrol-2-yl)carbonyl]amino}-1,5-dioxa-8-azaspiro[5.5]undec-8-yl)-4-{[(2-methoxyethyl)amino]carbonyl}-1,3-thiazole-5-carboxylate] | 18.5
COCCNC(=O)c1nc(N2CC[C@@H](NC(=O)c3[nH]c(C)c(Cl)c3Cl)[C@@H](n3cc(Cl)nn3)C2)sc1C(=O)O [Example 108, 2-((3S,4R)-3-(4-Chloro-1H-1,2,3-triazol-1-yl)-4-{[(3,4-dichloro-5-methyl-1H-pyrrol-2-yl)carbonyl]amino}piperidin-1-yl)-4-{[(2-methoxyethyl)amino]carbonyl}-1,3-thiazole-5-carboxylic acid] | < 9.77
CNC(=O)c1nc(N2CCC(NC(=O)c3[nH]c(C)c(Cl)c3Cl)/C(=N/OC)C2)sc1C(=O)O (stereo not shown) [Example 26, 2-[(3E)-4-{[(3,4-Dichloro-5-methyl-1H-pyrrol-2-yl)carbonyl]amino}-3-(methoxyimino)piperidin-1-yl]-4-[(methylamino)carbonyl]-1,3-thiazole-5-carboxylic acid] | < 9.77
Cc1[nH]c(C(=O)NC2CCN(c3ncc(C(=O)O)s3)CC23OCC(C)(C)CO3)c(Cl)c1Cl (stereo not shown) [Example 57, 2-(11-{[(3,4-Dichloro-5-methyl-1H-pyrrol-2-yl)carbonyl]amino}-3,3-dimethyl-1,5-dioxa-8-azaspiro[5.5]undec-8-yl)-1,3-thiazole-5-carboxylic acid] | < 9.77
COCCn1ccnc1-c1nc(N2CCC(NC(=O)c3[nH]c(C)c(Cl)c3Cl)/C(=N/OC)C2)sc1C(=O)OC (stereo not shown) [Example 36, Methyl 2-[(3E)-4-{[(3,4-dichloro-5-methyl-1H-pyrrol-2-yl)carbonyl]amino}-3-(methoxyimino)piperidin-1-yl]-4-[1-(2-methoxyethyl)-1H-imidazol-2-yl]-1,3-thiazole-5-carboxylate] | 75.5
COCC(COC)NC(=O)c1nc(N2CC[C@@H](NC(=O)c3[nH]c(C)c(Cl)c3Cl)[C@@H](n3cc(Cl)nn3)C2)sc1C(=O)O [Example 109] | < 9.77
COC(=O)c1cnc(N2CC[C@H](NC(=O)c3[nH]c(C)c(Cl)c3Cl)[C@H](n3cc(C)nn3)C2)s1 (racemic) [Example 121, cis(±)Methyl 2-[4-{[(3,4-dichloro-5-methyl-1H-pyrrol-2-yl)carbonyl]amino}-3-(4-methyl-1H-1,2,3-triazol-1-yl)piperidin-1-yl]-1,3-thiazole-5-carboxylate] | 36.9
Cc1[nH]c(C(=O)N[C@H]2CCN(c3ncc(C(=O)O)s3)C[C@H]2n2ccnn2)c(Cl)c1Cl (racemic) [Example 119, cis(±)2-[4-{[(3,4-Dichloro-5-methyl-1H-pyrrol-2-yl)carbonyl]amino}-3-(1H-1,2,3-triazol-1-yl)piperidin-1-yl]-1,3-thiazole-5-carboxylic acid] | 12.3
COC(=O)c1sc(N2CCC(NC(=O)c3[nH]c(C)c(Cl)c3Cl)C3(C2)OCCCO3)nc1C(C)=O (stereo not shown) [Example 9, Methyl 4-acetyl-2-(11-{[(3,4-dichloro-5-methyl-1H-pyrrol-2-yl)carbonyl]amino}-1,5-dioxa-8-azaspiro[5.5]undec-8-yl)-1,3-thiazole-5-carboxylate] | 52.2
COC(=O)c1cnc(N2CC[C@H](NC(=O)c3[nH]c(C)c(Cl)c3Cl)[C@H](n3cncn3)C2)s1 (racemic) [Example 39, cis(±)Methyl 2-[4-{[(3,4-dichloro-5-methyl-1H-pyrrol-2-yl)carbonyl]amino}-3-(1H-1,2,4-triazol-1-yl)piperidin-1-yl]-1,3-thiazole-5-carboxylate] | 33.4
CNC(=O)c1nc(N2CCC(NC(=O)c3[nH]c(C)c(Cl)c3Cl)C3(C2)OCCCO3)sc1C(=O)OC(C)C (stereo not shown) [Example 8, Isopropyl 2-(11-{[(3,4-dichloro-5-methyl-1H-pyrrol-2-yl)carbonyl]amino}-1,5-dioxa-8-azaspiro[5.5]undec-8-yl)-4-[(methylamino)carbonyl]-1,3-thiazole-5-carboxylate] | 73.6
CCOC(=O)c1sc(N2CC[C@H](NC(=O)c3[nH]c(C)c(Cl)c3Cl)[C@H](n3cncn3)C2)nc1C(=O)N[C@@H](C)COC (racemic) [Example 48, cis(±)Ethyl 2-[4-{[(3,4-dichloro-5-methyl-1H-pyrrol-2-yl)carbonyl]amino}-3-(1H-1,2,4-triazol-1-yl)piperidin-1-yl]-4-({[(1S)-2-methoxy-1-methylethyl]amino}carbonyl)-1,3-thiazole-5-carboxylate] | 36.5
CC(=O)c1nc(N2CCC(NC(=O)c3[nH]c(C)c(Cl)c3Cl)C3(C2)OCCO3)sc1C(=O)O (stereo not shown) [Example 12, 4-Acetyl-2-(10-{[(3,4-dichloro-5-methyl-1H-pyrrol-2-yl)carbonyl]amino}-1,4-dioxa-7-azaspiro[4.5]dec-7-yl)-1,3-thiazole-5-carboxylic acid] | < 83.1
Cc1cn([C@@H]2CN(c3ncc(C(=O)O)s3)CC[C@@H]2NC(=O)c2[nH]c(C)c(Cl)c2Cl)nn1 (racemic) [Example 122, cis(±)2-[4-{[(3,4-Dichloro-5-methyl-1H-pyrrol-2-yl)carbonyl]amino}-3-(4-methyl-1H-1,2,3-triazol-1-yl)piperidin-1-yl]-1,3-thiazole-5-carboxylic acid] | < 9.77
COCc1cn([C@H]2CN(c3nc(C(=O)NC(COC)COC)c(C(=O)O)s3)CC[C@H]2NC(=O)c2[nH]c(C)c(Cl)c2Cl)nn1 [Example 116] | < 9.77
